{"source": "patent US20240426807A1", "about": "“SCREENING SYSTEM” (Givaudan SA, priority 2021, published 2024)", "molecular_target": "T1, OR5AN1 (Homo sapiens, UniProt Q8NGI8)", "T1 construct": "expressed in transfected cells", "T1 sequence (Q8NGI8 1-311)": "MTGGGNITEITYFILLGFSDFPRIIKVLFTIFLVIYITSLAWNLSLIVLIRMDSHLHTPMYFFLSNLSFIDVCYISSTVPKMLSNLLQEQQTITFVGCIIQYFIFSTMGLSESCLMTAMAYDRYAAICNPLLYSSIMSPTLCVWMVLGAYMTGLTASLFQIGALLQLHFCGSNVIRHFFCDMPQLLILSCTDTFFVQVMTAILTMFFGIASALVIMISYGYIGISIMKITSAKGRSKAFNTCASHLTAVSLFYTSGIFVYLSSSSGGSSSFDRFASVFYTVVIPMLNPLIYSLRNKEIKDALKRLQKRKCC", "assay": "Ligand-induced blasticidin resistance, OR5AN1 cells (pGL4.29-CRE-BLAST-OR)", "assay_type": "cell-based", "from_the_text": "To generate a vector allowing positive selection of cell clones with a functional expression of a specific OR gene, a blasticidin resistance gene was placed downstream of SEQ ID NO: 4. The pGL4.29-CRE-Puro-OR vector generated as described in Example 1 was digested with BgIII and FseI to remove the comprised basal promoter and the complete puromycin resistance gene. The removed basal promoter sequence was amplified with the primers […] (SEQ ID NO: 28), […] (SEQ ID NO: 63), and the blasticidin S deaminase (bsd, SEQ ID NO: 64) encoding sequence was amplified by PCR using the primers […] (SEQ ID NO: 66) […] (SEQ ID NO: 67). The two overlapping PCR products were joined by fusion PCR using primers […] (SEQ ID NO: 28) and […] (SEQ ID NO: 68). The resulting DNA fragment was digested with BgIII/FseI and ligated into the digested vector to generate pGL4.29-CRE-Blast-OR.\nThis vector was used to generate stable cell lines as described in Example 1.\nStable clones containing a stable insertion of the pGL4.29-CRE-BLAST-OR construct with the receptor OR5AN1 (NCBI Genbank Gene ID: 390195) were then plated at a density of 3000 cells/per well in 100 μl Dubelcco's Modified Eagle medium (DMEM) in polyethyleneimide-coated, white 96 well microtiter plates with a transparent bottom. After cells were allowed to adhere for 24 h, 50 μl of medium containing different odorants (musk ketone or ethyl vanillin at 40 μM) was added to each well resulting in an odorant concentration of 13.3 μM. 6 h after odorant addition, 50 μl of medium containing blasticidin was added to reach a final concentration of 0.5-256 μg/ml in 10 two-fold dilution steps (day 1 of selection). This step further diluted the odorant to 10 μM. On day 4 of the selection (72 h after blasticidin addition), medium from each well was removed completely, 100 μl PrestoBlue® cell viability reagent (ThermoFisher Scientific, Catalog No: 14200-083) diluted in phosphate buffered saline containing 1 mg/ml glucose was added to each well and cells were incubated at 37° C. until a color change was visible in the wells containing no blasticidin. The fluorescence was determined at 560 excitation and 590 nm emission to assess relative cell metabolic activity, which is the net result of cell growth and cell killing in presence of the different blasticidin concentrations. The result was expressed as % viability relative to controls with no cells (0%) and cells treated with olfactory ligand only (100%).", "note": "Entries after “also recorded” stand apart in the source; their conditions may differ.", "data": [{"smiles": "CC(=O)c1c(C)c([N+](=O)[O-])c(C(C)(C)C)c([N+](=O)[O-])c1C", "note": "[musk ketone]", "values": [{"measurement": "blasticidin resistance in presence of odorant versus solvent control", "setting": "HEK293T OR5AN1, odorant 10 μM, blasticidin 0.5-256 μg/ml, PrestoBlue viability day 4", "value": "increased resistance to blasticidin; also recorded: Enhanced blasticidin resistance"}, {"measurement": "difference in viability with versus without ligand", "setting": "blasticidin at 32 μM (so in the source)", "value": "~10", "unit": "fold"}, {"measurement": "surviving cells (viability) in presence of ligand", "setting": "blasticidin at 32 μM (so in the source), odorant 10 μM, relative to no cells (0%) and ligand only (100%)", "value": 75, "unit": "%"}, {"measurement": "increase of blasticidin concentration reducing viability by 50% (EC50) in presence of ligand", "setting": "versus absence of ligand", "value": "> 50", "unit": "fold"}]}]}
